Assay results as given in USRE49444E1, “Method of treating osteoporosis comprising administration of PTHrP analog” (priority 2006, dated 2023).
Like-named read-outs stand apart in the source and are kept apart here.

What was measured:
[1] = tested on: Bacteria and Yeasts/moulds; assay: Preservative effectiveness test (European Pharmacopoeia 5.1.3), overall result; format: cell-based; conditions: for preservative efficacy: after 3 and 4.5 months storage; for Preservative effectiveness test Results: after manufacturing
Description: (§1) Solutions were prepared at room temperature, by dissolution of the various ingredients in water for injection, with stirring over <30 minutes to ensure complete dissolution, Solutions were filtered through 0.2 micron filter and filled into glass vials, to which a rubber stopper was applied and crimped in place to ensure complete closure.
The solutions were then stored for up to 3 months at 25° C., and up to 4.5 months at 5° C. and the preservative effectiveness test repeated. as described in Example 5.

[2] = tested on: Staphylococcus aureus; assay: Preservative effectiveness test, plate-count method; format: cell-based; conditions: after 3 and 4.5 months storage
[3] = Chemical stability of different formulations (SEQ ID NO.: 2 content); format: physicochemical; conditions: Table 6 formulations
Description: as §1
Table 6 details the chemical stability of the formulations described in Example 4.

[4] = tested on: serum PD markers (total and ionized calcium, phosphorus, PTH(1-84), 1,25-dihydroxyvitamin D, P1NP, CTX); format: in vivo, human
Description: Predose Days: Days −30 and −2
PTH(1-84) and 1,25-dihydroxyvitamin D (vitamin D):
Procollagen Type 1 N-Propeptide (P1NP) and C-Telopeptide
Predose (Day −2), Days 3, 8, and 14.
(§2) The data for each PD marker in serum (total and ionized calcium, phosphorus, PTH(1-84), 1,25-dihydroxyvitamin D, P1NP, and CTX) and in urine (calcium, phosphorus, c-AMP, and creatinine) following SEQ ID NO.: 2 and placebo doses were listed for each subject and summarized by SEQ ID NO.: 2 dose using descriptive statistics (mean, SD, CV %, SEM, N, min, max, and median).

[5] = tested on: urine PD markers (calcium, phosphorus, c-AMP, creatinine); assay: Clinical study: pharmacodynamic markers in urine; format: in vivo, human
Description: Urine PD Samples (Calcium Phosphorus Cyclic AMP [c-AMP], and Creatinine) were Obtained at the Following Time Points:
Day −1/Day 1: −24 to −18 hours, −18 to −12 hours, and −12 hours to 0 hours.
Days 1 and 7: 0 to 6 hours, 6 to 12 hours, and 12 to 24 hours.
The following parameters in urine were presented for each of the PD markers using SAS® Version 8.2: Volume (Vol.), concentration (Conc.), amount (Ae), cumulative amount (Cum. Ae), and excretion rates.
as §2

[6] = human, in vivo
Description: (§3) A randomized, double-blind, placebo-controlled, multiple-dose design study of Glu^22,25, Leu^23,28,31, Aib^29, Lys^263]hPTHrP(1-34)NH2 (SEQ ID NO.: 2) was conducted at 2 sites. A total of 39 eligible subjects were sequentially enrolled into 1 of 4 study groups consisting of 10 subjects each, with the exception of Group 2, which had 9 subjects. Within each study group, 8 subjects were randomly assigned to receive SEQ ID NO.: 2 and 2 subjects were randomly assigned to receive placebo (In Group 2 only, 1 subject received placebo). All subjects in the study were judged by the investigator to be healthy, normal volunteers. The test products were Glu^22,25, Leu^23,28,31, Aib^29, Lys^26,30]hPTHrP(1-34)NH2 (SEQ ID NO.: 2) (0.1 mg/vial) and Placebo (0.9% sodium chloride injection, USP). All subjects received a single subcutaneous (SC) dose of Glu^22,25, Leu^23,28,31, Aib^29, Lys^26,30]hPTHrP(1-34)NH2 (SEQ ID NO.: 2) or placebo for 7 days.
(§4) Criteria for Evaluation: Pharmacokinetics: PK sampling for plasma SEQ ID NO.: 2 on Days 1 and 7 was performed at the following time points: Predose (0 hour), 0.25, 0.5, 1, 1.5, 2, 3, 4, 6, 8, 12, and 24 hours postdose. Additionally, predose samples were taken for trough drug analysis on Days 3 to 6. The following PK parameters were computed for Days 1 and 7: AUC(0-t), AUC(0-∞) (Day 1 only), AUC(0-τ), AUCR (Day 1 only), Cmax, Tmax, Tlast, CL/F, Kel, t1/2, and AI (Day 7 only). These parameters were calculated from the overall (24 hours) plasma concentration-versus-time profiles by noncompartmental methods using WinNonlin® Pro Version 5.01 and SAS® Version 8.2. Moreover, the ln-transformed PK parameters Cmax, AUC(0-t), AUC(0-τ), and AUC(0-∞) are presented.
(§5) Plasma concentration and PK parameters for SEQ ID NO.: 2 were listed by subject and summarized by treatment and day using descriptive statistics (mean, standard deviation [SD], coefficient of variation [CV %], standard error of the mean [SEM], sample size [N], minimum [min], maximum [max], and median). Additionally, geometric means and ln-transformed values were provided for Cmax and AUCs. Dose proportionality was evaluated for Days 1 and 7 SEQ ID NO.: 2 data using the following power model: Ln(Y)=β0+β Ln Dose+ε where Y represents the PK parameters AUC(0-28), AUC(0-τ), AUC(0-t), and Cmax. Dose proportionality requires that β=1 for dose-dependent parameters.
(§6) The model was used to calculate the 95% confidence intervals (CI) for the slope of the ln-transformed PK parameters AUCs and Cmax. Dose proportionally was concluded if the 95% CI for the PK parameters included the value of 1.
(§7) For those cases in which dose proportionality could not be concluded within all doses investigated, dose proportionality analysis was performed for the first 3 (by excluding the highest dose) and the last 3 doses (by excluding the lowest dose).

[7] = clinical; conditions: human, in vivo; for AUC: AUC0-tau
Description: as §3, §4, §5, §6, §7

## OCc1ccccc1 [Benzyl Alcohol]
[1]
  preservative efficacy: not compliant
  Preservative effectiveness test Results: compliant
[2]
  rate of kill against S Aureus: insufficient rate of kill

## Oc1ccccc1 [Phenol]
[1]
  preservative efficacy: maintained
  Preservative effectiveness test Results: compliant

## CC[C@H](C)[C@H](NC(=O)[C@H](CO)NC(=O)[C@H](CCCCN)NC(=O)CNC(=O)[C@H](CCCCN)NC(=O)[C@H](CC(=O)O)NC(=O)[C@H](Cc1cnc[nH]1)NC(=O)[C@H](CC(C)C)NC(=O)[C@H](CC(C)C)NC(=O)[C@H](CCC(N)=O)NC(=O)[C@H](Cc1cnc[nH]1)NC(=O)[C@H](CCC(=O)O)NC(=O)[C@H](CO)NC(=O)[C@@H](NC(=O)[C@H](C)N)C(C)C)C(=O)N[C@@H](CCC(N)=O)C(=O)N[C@@H](CC(=O)O)C(=O)N[C@@H](CC(C)C)C(=O)N[C@@H](CCCNC(=N)N)C(=O)N[C@@H](CCCNC(=N)N)C(=O)N[C@@H](CCCNC(=N)N)C(=O)N[C@@H](CCC(=O)O)C(=O)N[C@@H](CC(C)C)C(=O)N[C@@H](CC(C)C)C(=O)N[C@@H](CCC(=O)O)C(=O)N[C@@H](CCCCN)C(=O)N[C@@H](CC(C)C)C(=O)N[C@@H](CC(C)C)C(=O)NC(C)(C)C(=O)N[C@@H](CCCCN)C(=O)N[C@@H](CC(C)C)C(=O)N[C@@H](Cc1cnc[nH]1)C(=O)N[C@H](C(=O)N[C@@H](C)C(N)=O)[C@@H](C)O [SEQ ID NO.: 2, [Glu^22,25, Leu^23,28,31, Aib^29, Lys^26,30]hPTHrP(1-34)NH2]
[3]
  solution stability, influence of the preservative: not significantly influenced by the preservative selected
[4]; 80 μg dose, Days 3, 8, and 14
  P1NP concentrations in serum, maximum increase above baseline: up to 18±12 ng/mL
[4]; 40 and 80 μg doses, after 2 hours postdose on Day 1 and most of the time on Day 7
  1,25-dihydroxyvitamin D concentrations in serum: steadily rose above the predose levels
[4]; Days 1 and 7
  serum phosphorus concentrations versus placebo: below the placebo concentration levels
[4]; Days 1 and 7, during most of the sampling times
  Serum PTH (1-84) concentrations: remained below the predose levels and placebo dose
[4]; human, in vivo
  Total calcium concentrations in serum versus reference range: remained within the reference range
[5]; Day 1
  mean urinary excretion rates of calcium: approximately at predose levels
[5]; Days 1 and 7
  Mean urinary excretion rates of c-AMP: increased
  Mean urinary excretion rates of creatinine: fluctuated around the predose levels
  Mean urinary excretion rates of phosphorus: fluctuated around the predose levels
[6]; 80 ug
  Apparent clearance: 82.74 to 103.9 L/h
  Dose proportionality Slope, AUC (0-inf): 0.9957
  Dose proportionality Slope, AUC (0-t): 0.9071
  Dose proportionality Slope, AUC (0-tau): 1.141
  increases in PK parameters Cmax, AUC(0-f), AUC(0-τ), AUC(0-∞) with dose: dose-proportional
[6]; sc, 5 ug
  AUC0-t: 0.080704 ± 0.030441 ng·h/mL
  AUCR: 0.521 ± 0.111
  CL/F: 28.56 L/h
  Cmax: 0.0408 ± 0.00763 ng/mL
  Tmax: 1.05 (0.514, 1.53) hr
  ln (AUC0-inf): 5.200 ± 0.3016
  ln (AUC0-tau): 5.198 ± 0.3007
[6]; sc, 20 ug
  AUC0-t: 0.17158 ± 0.082031 ng·h/mL
  AUC0-tau: 0.2282 ± 0.095154 ng·h/mL
  AUCR: 0.828 ± 0.0449
  CL/F: 103.9 ± 53.01 L/h
  Cmax: 0.109 ± 0.0192 ng/mL
  Tmax: 0.512 (0.250, 3.05) hr
  ln (AUC0-inf): 5.456 ± 0.4957
  t1/2: 1.05 ± 0.244 h
[6]; sc, 40 ug
  AUC0-t: 0.40798 ± 0.2197 ng·h/mL
  AUC0-tau: 0.48188 ± 0.22619 ng·h/mL
  AUCR: 0.838 ± 0.0703
  CL/F: 102.0 ± 53.34 L/h
  Cmax: 0.207 ± 0.0777 ng/mL
  Tmax: 0.492 (0.349, 1.00) hr
  ln (AUC0-inf): 6.280 ± 0.5203
  t1/2: 1.43 ± 0.397 h
[6]; sc, 80 ug
  AUC0-t: 1.003 ± 0.38345 ng·h/mL
  AUC0-tau: 1.0803 ± 0.40857 ng·h/mL
  AUCR: 0.892 ± 0.0369
  CL/F: 82.74 ± 26.95 L/h
  Cmax: 0.436 ± 0.0688 ng/mL
  Tmax: 0.507 (0.500, 1.00) hr
  ln (AUC0-inf): 6.855 ± 0.5063
  t1/2: 1.69 ± 0.425 h
[7]; mean t1/2
  half-life: 1.05 to 2.59 h
[7]; sc, 5 ug
  AUC(0-inf): 0.187 ± 0.0545 ng·h/mL
  AUC0-t: 0.0784 ± 0.0455 ng·h/mL
  AUC: 0.187 ± 0.0544 ng·h/mL
  CL/F: 476 mL/min
  Cmax: 0.0431 ± 0.0107 ng/mL
  Tmax: 0.566 h
[7]; sc, 5 ug, t1/2
  half-life: 2.59 ± 0.69 h
[7]; sc, 20 ug
  AUC(0-inf): 0.257 ± 0.119 ng·h/mL
  AUC0-t: 0.161 ± 0.111 ng·h/mL
  AUC: 0.257 ± 0.119 ng·h/mL
  CL/F: 1570 mL/min
  Cmax: 0.115 ± 0.0539 ng/mL
  Tmax: 0.296 h
[7]; sc, 20 ug, t1/2
  half-life: 1.05 ± 0.314 h
[7]; sc, 40 ug
  AUC(0-inf): 0.593 ± 0.281 ng·h/mL
  AUC0-t: 0.42 ± 0.275 ng·h/mL
  AUC: 0.593 ± 0.281 ng·h/mL
  CL/F: 1400 mL/min
  Cmax: 0.223 ± 0.099 ng/mL
  Tmax: 0.494 h
[7]; sc, 40 ug, t1/2
  half-life: 1.65 ± 0.254 h
[7]; sc, 80 ug
  AUC(0-inf): 1.06 ± 0.514 ng·h/mL
  AUC0-t: 0.95 ± 0.494 ng·h/mL
  AUC: 1.05 ± 0.511 ng·h/mL
  CL/F: 1580 mL/min
  Cmax: 0.31 ± 0.0543 ng/mL
  Tmax: 0.752 h
[7]; sc, 80 ug, t1/2
  half-life: 2.3 ± 0.715 h
